Results reported in ChEMBL document CHEMBL1140070, “Synthesis, structural studies and biological properties of new TBA analogues containing an acyclic nucleotide” (2008).

Tests used:
Plasma [1] = test: Anticoagulant potency in citreated human plasma assessed as prolongation of thromboplastin-induced prothrombin time at 2 uM by coagulometer; format: functional
[2] = target: Prothrombin (Homo sapiens) (UniProt P00734); test: Binding affinity to human thrombin assessed as concentration required to double fibrinogen clotting time by coagulometer
Plasma [3] = test: Anticoagulant potency in citreated human plasma assessed as prolongation of thromboplastin-induced prothrombin time at 20 uM by coagulometer; format: functional

Row | Compound | Activity (Plasma [1]) | Activity [2] | Activity (Plasma [3])
1 | Cc1cn(CC(C)(COP(=O)(O)OC[C@H]2O[C@@H](n3cnc4c(=O)[nH]c(N)nc43)[C@H](O)[C@@H]2OP(=O)(O)OC[C@H]2O[C@@H](n3cnc4c(=O)[nH]c(N)nc43)[C@H](O)[C@@H]2O)COP(=O)(O)O[C@H]2C[C@H](n3cc(C)c(=O)[nH]c3=O)O[C@@H]2COP(=O)(O)O[C@H]2[C@@H](O)[C@H](n3cnc4c(=O)[nH]c(N)nc43)O[C@@H]2COP(=O)(O)O[C@H]2[C@@H](O)[C@H](n3cnc4c(=O)[nH]c(N)nc43)O[C@@H]2COP(=O)(O)O[C@H]2C[C@H](n3cc(C)c(=O)[nH]c3=O)O[C@@H]2COP(=O)(O)O[C@H]2[C@@H](O)[C@H](n3cnc4c(=O)[nH]c(N)nc43)O[C@@H]2COP(=O)(O)O[C@H]2C[C@H](n3cc(C)c(=O)[nH]c3=O)O[C@@H]2COP(=O)(O)O[C@H]2[C@@H](O)[C@H](n3cnc4c(=O)[nH]c(N)nc43)O[C@@H]2COP(=O)(O)O[C@H]2[C@@H](O)[C@H](n3cnc4c(=O)[nH]c(N)nc43)O[C@@H]2COP(=O)(O)O[C@H]2C[C@H](n3cc(C)c(=O)[nH]c3=O)O[C@@H]2COP(=O)(O)O[C@H]2C[C@H](n3cc(C)c(=O)[nH]c3=O)O[C@@H]2COP(=O)(O)O[C@H]2[C@@H](O)[C@H](n3cnc4c(=O)[nH]c(N)nc43)O[C@@H]2COP(=O)(O)O[C@H]2[C@@H](O)[C@H](n3cnc4c(=O)[nH]c(N)nc43)O[C@@H]2CO)c(=O)[nH]c1=O (stereo partly specified) | 17.5 s | 100 nM | 46.97 s
2 | Cc1cn(CC(C)(COP(=O)(O)OC[C@H]2O[C@@H](n3cc(C)c(=O)[nH]c3=O)C[C@@H]2OP(=O)(O)OC[C@H]2O[C@@H](n3cnc4c(=O)[nH]c(N)nc43)[C@H](O)[C@@H]2OP(=O)(O)OC[C@H]2O[C@@H](n3cnc4c(=O)[nH]c(N)nc43)[C@H](O)[C@@H]2O)COP(=O)(O)O[C@H]2[C@@H](O)[C@H](n3cnc4c(=O)[nH]c(N)nc43)O[C@@H]2COP(=O)(O)O[C@H]2[C@@H](O)[C@H](n3cnc4c(=O)[nH]c(N)nc43)O[C@@H]2COP(=O)(O)O[C@H]2C[C@H](n3cc(C)c(=O)[nH]c3=O)O[C@@H]2COP(=O)(O)O[C@H]2[C@@H](O)[C@H](n3cnc4c(=O)[nH]c(N)nc43)O[C@@H]2COP(=O)(O)O[C@H]2C[C@H](n3cc(C)c(=O)[nH]c3=O)O[C@@H]2COP(=O)(O)O[C@H]2[C@@H](O)[C@H](n3cnc4c(=O)[nH]c(N)nc43)O[C@@H]2COP(=O)(O)O[C@H]2[C@@H](O)[C@H](n3cnc4c(=O)[nH]c(N)nc43)O[C@@H]2COP(=O)(O)O[C@H]2C[C@H](n3cc(C)c(=O)[nH]c3=O)O[C@@H]2COP(=O)(O)O[C@H]2C[C@H](n3cc(C)c(=O)[nH]c3=O)O[C@@H]2COP(=O)(O)O[C@H]2[C@@H](O)[C@H](n3cnc4c(=O)[nH]c(N)nc43)O[C@@H]2COP(=O)(O)O[C@H]2[C@@H](O)[C@H](n3cnc4c(=O)[nH]c(N)nc43)O[C@@H]2CO)c(=O)[nH]c1=O (stereo partly specified) | 18.07 s | 78 nM | 44.83 s
3 | Cc1cn(CC(C)(COP(=O)(O)OC[C@H]2O[C@@H](n3cnc4c(=O)[nH]c(N)nc43)[C@H](O)[C@@H]2OP(=O)(O)OC[C@H]2O[C@@H](n3cc(C)c(=O)[nH]c3=O)C[C@@H]2OP(=O)(O)OC[C@H]2O[C@@H](n3cnc4c(=O)[nH]c(N)nc43)[C@H](O)[C@@H]2OP(=O)(O)OC[C@H]2O[C@@H](n3cnc4c(=O)[nH]c(N)nc43)[C@H](O)[C@@H]2OP(=O)(O)OC[C@H]2O[C@@H](n3cc(C)c(=O)[nH]c3=O)C[C@@H]2OP(=O)(O)OC[C@H]2O[C@@H](n3cc(C)c(=O)[nH]c3=O)C[C@@H]2OP(=O)(O)OC[C@H]2O[C@@H](n3cnc4c(=O)[nH]c(N)nc43)[C@H](O)[C@@H]2OP(=O)(O)OC[C@H]2O[C@@H](n3cnc4c(=O)[nH]c(N)nc43)[C@H](O)[C@@H]2O)COP(=O)(O)O[C@H]2[C@@H](O)[C@H](n3cnc4c(=O)[nH]c(N)nc43)O[C@@H]2COP(=O)(O)O[C@H]2[C@@H](O)[C@H](n3cnc4c(=O)[nH]c(N)nc43)O[C@@H]2COP(=O)(O)O[C@H]2C[C@H](n3cc(C)c(=O)[nH]c3=O)O[C@@H]2COP(=O)(O)O[C@H]2C[C@H](n3cc(C)c(=O)[nH]c3=O)O[C@@H]2COP(=O)(O)O[C@H]2[C@@H](O)[C@H](n3cnc4c(=O)[nH]c(N)nc43)O[C@@H]2COP(=O)(O)O[C@H]2[C@@H](O)[C@H](n3cnc4c(=O)[nH]c(N)nc43)O[C@@H]2CO)c(=O)[nH]c1=O (stereo partly specified) | 24.67 s | 70 nM | 60.2 s
4 | Cc1cn(CC(C)(COP(=O)(O)OC[C@H]2O[C@@H](n3cc(C)c(=O)[nH]c3=O)C[C@@H]2OP(=O)(O)OC[C@H]2O[C@@H](n3cnc4c(=O)[nH]c(N)nc43)[C@H](O)[C@@H]2OP(=O)(O)OC[C@H]2O[C@@H](n3cnc4c(=O)[nH]c(N)nc43)[C@H](O)[C@@H]2OP(=O)(O)OC[C@H]2O[C@@H](n3cc(C)c(=O)[nH]c3=O)C[C@@H]2OP(=O)(O)OC[C@H]2O[C@@H](n3cnc4c(=O)[nH]c(N)nc43)[C@H](O)[C@@H]2OP(=O)(O)OC[C@H]2O[C@@H](n3cc(C)c(=O)[nH]c3=O)C[C@@H]2OP(=O)(O)OC[C@H]2O[C@@H](n3cnc4c(=O)[nH]c(N)nc43)[C@H](O)[C@@H]2OP(=O)(O)OC[C@H]2O[C@@H](n3cnc4c(=O)[nH]c(N)nc43)[C@H](O)[C@@H]2OP(=O)(O)OC[C@H]2O[C@@H](n3cc(C)c(=O)[nH]c3=O)C[C@@H]2OP(=O)(O)OC[C@H]2O[C@@H](n3cc(C)c(=O)[nH]c3=O)C[C@@H]2OP(=O)(O)OC[C@H]2O[C@@H](n3cnc4c(=O)[nH]c(N)nc43)[C@H](O)[C@@H]2OP(=O)(O)OC[C@H]2O[C@@H](n3cnc4c(=O)[nH]c(N)nc43)[C@H](O)[C@@H]2O)COP(=O)(O)O[C@H]2[C@@H](O)[C@H](n3cnc4c(=O)[nH]c(N)nc43)O[C@@H]2COP(=O)(O)O[C@H]2[C@@H](O)[C@H](n3cnc4c(=O)[nH]c(N)nc43)O[C@@H]2CO)c(=O)[nH]c1=O (stereo partly specified) | 14.3 s | 238 nM | 35.15 s
5 | Cc1cn(CC(C)(COP(=O)(O)OC[C@H]2O[C@@H](n3cnc4c(=O)[nH]c(N)nc43)[C@H](O)[C@@H]2OP(=O)(O)OC[C@H]2O[C@@H](n3cnc4c(=O)[nH]c(N)nc43)[C@H](O)[C@@H]2OP(=O)(O)OC[C@H]2O[C@@H](n3cc(C)c(=O)[nH]c3=O)C[C@@H]2OP(=O)(O)OC[C@H]2O[C@@H](n3cc(C)c(=O)[nH]c3=O)C[C@@H]2OP(=O)(O)OC[C@H]2O[C@@H](n3cnc4c(=O)[nH]c(N)nc43)[C@H](O)[C@@H]2OP(=O)(O)OC[C@H]2O[C@@H](n3cnc4c(=O)[nH]c(N)nc43)[C@H](O)[C@@H]2O)COP(=O)(O)O[C@H]2[C@@H](O)[C@H](n3cnc4c(=O)[nH]c(N)nc43)O[C@@H]2COP(=O)(O)O[C@H]2C[C@H](n3cc(C)c(=O)[nH]c3=O)O[C@@H]2COP(=O)(O)O[C@H]2[C@@H](O)[C@H](n3cnc4c(=O)[nH]c(N)nc43)O[C@@H]2COP(=O)(O)O[C@H]2[C@@H](O)[C@H](n3cnc4c(=O)[nH]c(N)nc43)O[C@@H]2COP(=O)(O)O[C@H]2C[C@H](n3cc(C)c(=O)[nH]c3=O)O[C@@H]2COP(=O)(O)O[C@H]2C[C@H](n3cc(C)c(=O)[nH]c3=O)O[C@@H]2COP(=O)(O)O[C@H]2[C@@H](O)[C@H](n3cnc4c(=O)[nH]c(N)nc43)O[C@@H]2COP(=O)(O)O[C@H]2[C@@H](O)[C@H](n3cnc4c(=O)[nH]c(N)nc43)O[C@@H]2CO)c(=O)[nH]c1=O (stereo partly specified) | 13.23 s | 210 nM | 34.65 s
6 | Cc1cn(CC(C)(COP(=O)(O)OC[C@H]2O[C@@H](n3cnc4c(=O)[nH]c(N)nc43)[C@H](O)[C@@H]2OP(=O)(O)OC[C@H]2O[C@@H](n3cnc4c(=O)[nH]c(N)nc43)[C@H](O)[C@@H]2OP(=O)(O)OC[C@H]2O[C@@H](n3cc(C)c(=O)[nH]c3=O)C[C@@H]2OP(=O)(O)OC[C@H]2O[C@@H](n3cnc4c(=O)[nH]c(N)nc43)[C@H](O)[C@@H]2OP(=O)(O)OC[C@H]2O[C@@H](n3cc(C)c(=O)[nH]c3=O)C[C@@H]2OP(=O)(O)OC[C@H]2O[C@@H](n3cnc4c(=O)[nH]c(N)nc43)[C@H](O)[C@@H]2OP(=O)(O)OC[C@H]2O[C@@H](n3cnc4c(=O)[nH]c(N)nc43)[C@H](O)[C@@H]2OP(=O)(O)OC[C@H]2O[C@@H](n3cc(C)c(=O)[nH]c3=O)C[C@@H]2OP(=O)(O)OC[C@H]2O[C@@H](n3cc(C)c(=O)[nH]c3=O)C[C@@H]2OP(=O)(O)OC[C@H]2O[C@@H](n3cnc4c(=O)[nH]c(N)nc43)[C@H](O)[C@@H]2OP(=O)(O)OC[C@H]2O[C@@H](n3cnc4c(=O)[nH]c(N)nc43)[C@H](O)[C@@H]2O)COP(=O)(O)O[C@H]2C[C@H](n3cc(C)c(=O)[nH]c3=O)O[C@@H]2COP(=O)(O)O[C@H]2[C@@H](O)[C@H](n3cnc4c(=O)[nH]c(N)nc43)O[C@@H]2COP(=O)(O)O[C@H]2[C@@H](O)[C@H](n3cnc4c(=O)[nH]c(N)nc43)O[C@@H]2CO)c(=O)[nH]c1=O (stereo partly specified) | 14.5 s | 250 nM | 32.28 s
7 | Cc1cn([C@H]2C[C@H](OP(=O)(O)OC[C@H]3O[C@@H](n4cnc5c(=O)[nH]c(N)nc54)[C@H](O)[C@@H]3OP(=O)(O)OC[C@H]3O[C@@H](n4cnc5c(=O)[nH]c(N)nc54)[C@H](O)[C@@H]3OP(=O)(O)OC[C@H]3O[C@@H](n4cc(C)c(=O)[nH]c4=O)C[C@@H]3OP(=O)(O)OC[C@H]3O[C@@H](n4cc(C)c(=O)[nH]c4=O)C[C@@H]3OP(=O)(O)OC[C@H]3O[C@@H](n4cnc5c(=O)[nH]c(N)nc54)[C@H](O)[C@@H]3OP(=O)(O)OC[C@H]3O[C@@H](n4cnc5c(=O)[nH]c(N)nc54)[C@H](O)[C@@H]3O)[C@@H](COP(=O)(O)O[C@H]3[C@@H](O)[C@H](n4cnc5c(=O)[nH]c(N)nc54)O[C@@H]3COP(=O)(O)O[C@H]3C[C@H](n4cc(C)c(=O)[nH]c4=O)O[C@@H]3COP(=O)(O)O[C@H]3[C@@H](O)[C@H](n4cnc5c(=O)[nH]c(N)nc54)O[C@@H]3COP(=O)(O)O[C@H]3[C@@H](O)[C@H](n4cnc5c(=O)[nH]c(N)nc54)O[C@@H]3COP(=O)(O)O[C@H]3C[C@H](n4cc(C)c(=O)[nH]c4=O)O[C@@H]3COP(=O)(O)O[C@H]3C[C@H](n4cc(C)c(=O)[nH]c4=O)O[C@@H]3COP(=O)(O)O[C@H]3[C@@H](O)[C@H](n4cnc5c(=O)[nH]c(N)nc54)O[C@@H]3COP(=O)(O)O[C@H]3[C@@H](O)[C@H](n4cnc5c(=O)[nH]c(N)nc54)O[C@@H]3CO)O2)c(=O)[nH]c1=O [THROMBIN APTAMER] | 22.6 s | 175 nM | 53.68 s
